Patent EP4745135A1 (Gluetacs Therapeutics (Shanghai) Co., Ltd., priority 2023, dated 2025)

Key:
CK1α = biological target: T1, CK1α (Homo sapiens, UniProt P48729+Q96SW2); assay: Western blot, degradation of substrate protein in hPBMCs; format: cell-based
T1 construct: effects of the compounds of the present disclosure on the expression of target proteins in cells; endogenous in cells; host or cells: human PBMCs (Milecell Biotechnologies)

IKZF1 = biological target: T2, IKZF1 (Homo sapiens, UniProt Q13422+Q96SW2); assay: as above; format: cell-based
T2 construct: effects of the compounds of the present disclosure on the expression of target proteins in cells; endogenous in cells; host or cells: human PBMCs (Milecell Biotechnologies)

IKZF2 = biological target: T3, IKZF2 (Homo sapiens, UniProt Q96SW2+Q9UKS7); assay: as above; format: cell-based
T3 construct: effects of the compounds of the present disclosure on the expression of target proteins in cells; endogenous in cells; host or cells: human PBMCs (Milecell Biotechnologies)

IKZF3 = biological target: T4, IKZF3 (Homo sapiens, UniProt Q96SW2+Q9UKT9); assay: as above; format: cell-based
T4 construct: effects of the compounds of the present disclosure on the expression of target proteins in cells; endogenous in cells; host or cells: human PBMCs (Milecell Biotechnologies)

WEE1 = biological target: T5, WEE1 (Homo sapiens, UniProt P30291+Q96SW2); assay: as above; format: cell-based
T5 construct: effects of the compounds of the present disclosure on the expression of target proteins in cells; endogenous in cells; host or cells: human PBMCs (Milecell Biotechnologies)

GSPT1 = assay: as above; format: cell-based, Human
[1] = biological target: T6, human Cereblon WT GST-tagged protein (Homo sapiens, UniProt Q96SW2); assay: CRBN-binding affinity, HTRF (CEREBLON BINDING kit); details: for inhibition at 0.5 µM: read-out: Inhibition Rate at 0.5 µM (%); for inhibition at 2 µM: read-out: Inhibition Rate at 2 µM (%)
T6 construct: purchased CISBIO 64BDCRBNPEH

[2] = Western blot, 24 hours of compound treatment, compounds tested at 50 nM and 500 nM (concentration for the table not stated)
[3] = 24 hours treatment, compounds at 50 nM and 500 nM (concentration behind the class not stated)

T6 sequence (Q96SW2 whole entry): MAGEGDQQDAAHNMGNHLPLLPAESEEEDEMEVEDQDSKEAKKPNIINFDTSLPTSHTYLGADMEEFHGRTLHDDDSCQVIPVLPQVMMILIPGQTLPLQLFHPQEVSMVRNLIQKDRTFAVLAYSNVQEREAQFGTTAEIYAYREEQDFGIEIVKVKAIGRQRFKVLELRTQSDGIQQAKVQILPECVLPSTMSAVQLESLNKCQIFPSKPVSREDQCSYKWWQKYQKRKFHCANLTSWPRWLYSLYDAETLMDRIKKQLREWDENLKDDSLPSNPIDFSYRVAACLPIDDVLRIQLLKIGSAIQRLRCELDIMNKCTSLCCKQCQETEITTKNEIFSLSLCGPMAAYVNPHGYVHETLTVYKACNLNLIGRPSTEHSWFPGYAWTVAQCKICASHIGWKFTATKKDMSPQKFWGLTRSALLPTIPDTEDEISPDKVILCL
T2 sequence (Q13422 whole entry): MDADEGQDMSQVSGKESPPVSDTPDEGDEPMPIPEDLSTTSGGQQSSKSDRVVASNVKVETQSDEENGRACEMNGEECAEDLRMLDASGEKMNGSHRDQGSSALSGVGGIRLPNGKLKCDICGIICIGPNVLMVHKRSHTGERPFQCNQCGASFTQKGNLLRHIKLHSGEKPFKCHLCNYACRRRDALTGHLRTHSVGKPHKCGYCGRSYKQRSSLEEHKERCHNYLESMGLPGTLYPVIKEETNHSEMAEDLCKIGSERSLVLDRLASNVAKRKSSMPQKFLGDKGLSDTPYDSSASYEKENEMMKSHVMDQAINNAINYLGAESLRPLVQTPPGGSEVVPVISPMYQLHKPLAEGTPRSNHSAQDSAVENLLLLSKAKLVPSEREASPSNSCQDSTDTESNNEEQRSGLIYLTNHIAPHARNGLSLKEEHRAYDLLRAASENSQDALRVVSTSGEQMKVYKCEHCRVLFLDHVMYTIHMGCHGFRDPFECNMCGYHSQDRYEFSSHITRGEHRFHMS
T2 sequence (Q96SW2 whole entry): as the sequence (Q96SW2 whole entry) above
T2 sequence (Q16531 whole entry partner): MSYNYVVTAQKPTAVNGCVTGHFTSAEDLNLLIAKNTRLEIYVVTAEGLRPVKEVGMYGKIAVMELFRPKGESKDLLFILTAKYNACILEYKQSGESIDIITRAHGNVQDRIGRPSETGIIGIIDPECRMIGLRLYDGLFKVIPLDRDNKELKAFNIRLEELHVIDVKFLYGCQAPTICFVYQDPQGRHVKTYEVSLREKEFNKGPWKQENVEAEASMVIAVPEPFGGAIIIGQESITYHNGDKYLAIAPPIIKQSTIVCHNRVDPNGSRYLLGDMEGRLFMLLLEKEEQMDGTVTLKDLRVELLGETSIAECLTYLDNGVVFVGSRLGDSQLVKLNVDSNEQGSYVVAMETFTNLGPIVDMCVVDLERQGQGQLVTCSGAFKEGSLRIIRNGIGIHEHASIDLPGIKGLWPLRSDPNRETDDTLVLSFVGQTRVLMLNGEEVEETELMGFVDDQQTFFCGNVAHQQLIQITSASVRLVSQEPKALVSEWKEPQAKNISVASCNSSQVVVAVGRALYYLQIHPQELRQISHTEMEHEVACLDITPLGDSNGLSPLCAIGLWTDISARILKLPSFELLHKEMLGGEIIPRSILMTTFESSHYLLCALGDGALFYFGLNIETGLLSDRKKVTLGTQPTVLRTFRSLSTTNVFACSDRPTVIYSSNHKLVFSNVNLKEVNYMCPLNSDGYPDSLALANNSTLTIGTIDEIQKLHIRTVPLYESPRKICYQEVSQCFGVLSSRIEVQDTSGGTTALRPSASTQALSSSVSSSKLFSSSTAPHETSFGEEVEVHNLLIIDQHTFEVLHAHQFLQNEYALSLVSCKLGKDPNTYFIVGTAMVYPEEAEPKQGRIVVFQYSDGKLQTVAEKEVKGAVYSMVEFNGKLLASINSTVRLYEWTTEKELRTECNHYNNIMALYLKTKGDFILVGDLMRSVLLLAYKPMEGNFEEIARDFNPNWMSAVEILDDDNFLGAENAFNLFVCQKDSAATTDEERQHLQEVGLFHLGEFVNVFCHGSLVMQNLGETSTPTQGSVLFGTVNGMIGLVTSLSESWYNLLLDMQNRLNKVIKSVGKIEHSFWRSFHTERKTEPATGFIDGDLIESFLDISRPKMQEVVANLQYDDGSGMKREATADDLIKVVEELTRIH
T1 sequence (P48729 whole entry): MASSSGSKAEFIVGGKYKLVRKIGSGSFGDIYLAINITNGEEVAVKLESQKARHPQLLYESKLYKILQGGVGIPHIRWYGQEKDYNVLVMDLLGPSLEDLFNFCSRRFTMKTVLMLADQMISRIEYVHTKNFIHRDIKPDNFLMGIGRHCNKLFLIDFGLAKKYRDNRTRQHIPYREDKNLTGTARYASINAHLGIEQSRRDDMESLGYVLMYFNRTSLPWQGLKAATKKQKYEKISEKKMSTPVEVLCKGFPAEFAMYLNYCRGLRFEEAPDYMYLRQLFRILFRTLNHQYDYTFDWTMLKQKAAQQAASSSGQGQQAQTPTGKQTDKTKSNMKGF
T1 sequence (Q96SW2 whole entry): as the sequence (Q96SW2 whole entry) above
T1 sequence (Q16531 whole entry partner): as the sequence (Q16531 whole entry partner) above
T5 sequence (P30291 whole entry): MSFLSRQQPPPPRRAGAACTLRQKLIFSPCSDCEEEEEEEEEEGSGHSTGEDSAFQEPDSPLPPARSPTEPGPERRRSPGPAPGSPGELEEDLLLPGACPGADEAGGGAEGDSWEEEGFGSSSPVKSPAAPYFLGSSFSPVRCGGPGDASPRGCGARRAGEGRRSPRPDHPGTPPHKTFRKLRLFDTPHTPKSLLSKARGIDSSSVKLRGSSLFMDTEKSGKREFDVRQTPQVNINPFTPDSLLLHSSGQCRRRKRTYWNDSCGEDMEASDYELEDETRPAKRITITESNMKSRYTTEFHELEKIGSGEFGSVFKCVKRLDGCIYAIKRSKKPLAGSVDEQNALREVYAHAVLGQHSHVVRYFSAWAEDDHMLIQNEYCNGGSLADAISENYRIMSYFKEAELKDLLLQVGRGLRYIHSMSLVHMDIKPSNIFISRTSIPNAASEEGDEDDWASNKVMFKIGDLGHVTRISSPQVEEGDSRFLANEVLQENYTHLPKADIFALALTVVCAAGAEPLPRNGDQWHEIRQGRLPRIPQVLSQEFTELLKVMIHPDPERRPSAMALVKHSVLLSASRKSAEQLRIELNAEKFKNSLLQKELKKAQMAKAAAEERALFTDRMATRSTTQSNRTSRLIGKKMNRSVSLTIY
T5 sequence (Q96SW2 whole entry): as the sequence (Q96SW2 whole entry) above
T5 sequence (Q16531 whole entry partner): as the sequence (Q16531 whole entry partner) above
T4 sequence (Q9UKT9 whole entry): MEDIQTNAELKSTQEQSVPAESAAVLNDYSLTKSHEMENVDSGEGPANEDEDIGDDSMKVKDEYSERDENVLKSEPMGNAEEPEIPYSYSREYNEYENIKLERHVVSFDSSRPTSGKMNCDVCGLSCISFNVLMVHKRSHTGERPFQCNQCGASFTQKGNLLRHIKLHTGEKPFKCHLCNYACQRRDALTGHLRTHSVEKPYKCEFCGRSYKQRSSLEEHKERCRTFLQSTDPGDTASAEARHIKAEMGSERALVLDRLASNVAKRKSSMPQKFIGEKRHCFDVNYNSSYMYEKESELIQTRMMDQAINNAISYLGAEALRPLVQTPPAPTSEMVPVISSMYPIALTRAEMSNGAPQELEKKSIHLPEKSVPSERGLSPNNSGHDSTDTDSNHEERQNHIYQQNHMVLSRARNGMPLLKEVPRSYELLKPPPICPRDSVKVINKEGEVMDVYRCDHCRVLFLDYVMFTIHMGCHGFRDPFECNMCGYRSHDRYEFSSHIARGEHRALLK
T4 sequence (Q96SW2 whole entry): as the sequence (Q96SW2 whole entry) above
T4 sequence (Q16531 whole entry partner): as the sequence (Q16531 whole entry partner) above
T3 sequence (Q9UKS7 whole entry): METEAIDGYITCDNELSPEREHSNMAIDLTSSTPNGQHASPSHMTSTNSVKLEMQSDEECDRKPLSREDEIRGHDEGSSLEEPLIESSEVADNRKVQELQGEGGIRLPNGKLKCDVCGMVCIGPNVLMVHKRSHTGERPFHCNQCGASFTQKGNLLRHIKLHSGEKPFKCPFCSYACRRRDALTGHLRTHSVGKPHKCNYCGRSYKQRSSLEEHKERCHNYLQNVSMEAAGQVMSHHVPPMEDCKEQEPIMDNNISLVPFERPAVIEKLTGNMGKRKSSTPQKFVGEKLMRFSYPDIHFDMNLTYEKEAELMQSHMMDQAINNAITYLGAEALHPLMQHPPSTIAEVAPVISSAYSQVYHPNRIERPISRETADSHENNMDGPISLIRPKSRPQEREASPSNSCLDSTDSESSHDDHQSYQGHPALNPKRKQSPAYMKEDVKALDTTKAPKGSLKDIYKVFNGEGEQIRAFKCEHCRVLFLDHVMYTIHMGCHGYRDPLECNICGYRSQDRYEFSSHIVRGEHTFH
T3 sequence (Q96SW2 whole entry): as the sequence (Q96SW2 whole entry) above
T3 sequence (Q16531 whole entry partner): as the sequence (Q16531 whole entry partner) above

| Structure (SMILES) | inhibition at 0.5 µM [1] | inhibition at 2 µM [1] | IC50 ([1]; CRBN binding, HTRF, 3 hours at room temperature, read-out: HTRF IC50) | CK1α substrate protein remaining % (CK1α; [2]) | IKZF 1 substrate protein remaining % (IKZF1; [2]) | IKZF2 substrate protein remaining % (IKZF2; [2]) | IKZF3 substrate protein remaining % (IKZF3; [2]) | Wee1 substrate protein remaining % (WEE1; [2]) | GSPT1 substrate protein remaining % (GSPT1; [2]) | CK1α substrate protein remaining % (CK1α; [3]) | IKZF 1 substrate protein remaining % (IKZF1; [3]) | IKZF2 substrate protein remaining % (IKZF2; [3]) | IKZF3 substrate protein remaining % (IKZF3; [3]) | Wee1 substrate protein remaining % (WEE1; [3]) | GSPT1 substrate protein remaining % (GSPT1; [3]) |
| --- | --- | --- | --- | --- | --- | --- | --- | --- | --- | --- | --- | --- | --- | --- | --- |
| O=C1CCC(N2Cc3cc(CN4CCC(c5ccoc5)CC4)ccc3C2=S)C(=O)N1 (centres unmarked) [GT-08326, 3-(5-((4-(furan-3-yl)piperidin-1-yl)methyl)-1-thioxoisoindolin-2-yl)piperidine-2,6-dione] | 40 to 53% | 80 to 100% | – | – | – | – | – | – | – | A (0% ≤ substrate protein remaining % ≤ 80%) | B (80%< substrate protein remaining %≤ 100%) | A (0% ≤ substrate protein remaining % ≤ 80%) | B (80%< substrate protein remaining %≤ 100%) | B (80%< substrate protein remaining %≤ 100%) | A (0% ≤ substrate protein remaining % ≤ 80%) |
| Cc1cc(C2=CCN(Cc3cccc4c3CN(C3CCC(=O)NC3=O)C4=S)CC2)cs1 (centres unmarked) [GT-08318, 3-(4-((4-(5-methylthiophen-3-yl)-3,6-dihydropyridin-1(2H)-yl)methyl)-1-thioxoisoindolin-2-yl)piperidine-2,6-dione] | 40 to 53% | 60 to 80% | – | – | – | – | – | – | – | B (80%< substrate protein remaining %≤ 100%) | B (80%< substrate protein remaining %≤ 100%) | B (80%< substrate protein remaining %≤ 100%) | A (0% ≤ substrate protein remaining % ≤ 80%) | A (0% ≤ substrate protein remaining % ≤ 80%) | B (80%< substrate protein remaining %≤ 100%) |
| O=C1CCC(N2Cc3cc(CN4CC=C(c5ccnc(F)c5F)CC4)ccc3C2=S)C(=O)N1 (centres unmarked) [GT-08474, 3-(5-((2',3'-difluoro-3,6-dihydro-[4,4'-bipyridin]-1(2H)-yl)methyl)-1-thioxoisoindolin-2-yl)piperidine-2,6-dione] | 80 to 100% | 80 to 100% | – | B (80%< substrate protein remaining %≤ 100%) | B (80%< substrate protein remaining %≤ 100%) | B (80%< substrate protein remaining %≤ 100%) | B (80%< substrate protein remaining %≤ 100%) | B (80%< substrate protein remaining %≤ 100%) | A (0% ≤ substrate protein remaining % ≤ 80%) | – | – | – | – | – | – |
| O=C1CCC(N2Cc3c(CN4CCC(c5n[nH]c6cc(F)ccc56)CC4)cccc3C2=S)C(=O)N1 (centres unmarked) [GT-08849, 3-(4-((4-(6-fluoro-1H-indazol-3-yl)piperidin-1-yl)methyl)-1-thioxoisoindolin-2-yl)piperidine-2,6-dione] | 60 to 80% | 80 to 100% | – | B (80%< substrate protein remaining %≤ 100%) | B (80%< substrate protein remaining %≤ 100%) | B (80%< substrate protein remaining %≤ 100%) | B (80%< substrate protein remaining %≤ 100%) | A (0% ≤ substrate protein remaining % ≤ 80%) | A (0% ≤ substrate protein remaining % ≤ 80%) | – | – | – | – | – | – |
| O=C1CCC(N2Cc3c(CN4CCN(c5nc(N6CCOCC6)nc6ccsc56)CC4)cccc3C2=S)C(=O)N1 (centres unmarked) [GT-09032, 3-(4-((4-(2-morpholinothieno[3,2-d]pyrimidin-4-yl)piperazin-1-yl)methyl)-1-thioxoisoindolin-2-yl)piperidine-2,6-dione] | 40 to 53% | 80 to 100% | – | – | – | – | – | – | – | B (80%< substrate protein remaining %≤ 100%) | B (80%< substrate protein remaining %≤ 100%) | B (80%< substrate protein remaining %≤ 100%) | B (80%< substrate protein remaining %≤ 100%) | A (0% ≤ substrate protein remaining % ≤ 80%) | B (80%< substrate protein remaining %≤ 100%) |

Now from value to compound, other results behind:

| inhibition at 0.5 µM [1] | inhibition at 2 µM [1] | IC50 ([1]; CRBN binding, HTRF, 3 hours at room temperature, read-out: HTRF IC50) | Structure (SMILES) | CK1α substrate protein remaining % (CK1α; [2]) | IKZF 1 substrate protein remaining % (IKZF1; [2]) | IKZF2 substrate protein remaining % (IKZF2; [2]) | IKZF3 substrate protein remaining % (IKZF3; [2]) | Wee1 substrate protein remaining % (WEE1; [2]) | GSPT1 substrate protein remaining % (GSPT1; [2]) | CK1α substrate protein remaining % (CK1α; [3]) | IKZF 1 substrate protein remaining % (IKZF1; [3]) | IKZF2 substrate protein remaining % (IKZF2; [3]) | IKZF3 substrate protein remaining % (IKZF3; [3]) | Wee1 substrate protein remaining % (WEE1; [3]) | GSPT1 substrate protein remaining % (GSPT1; [3]) |
| --- | --- | --- | --- | --- | --- | --- | --- | --- | --- | --- | --- | --- | --- | --- | --- |
| 40 to 53% | 80 to 100% | – | C[C@@H]1CN(C(c2ccccc2)c2ccccc2)CCN1Cc1cccc2c1CN(C1CCC(=O)NC1=O)C2=S (stereo partly drawn) [GT-08232, 3-(4-(((R)-4-benzhydryl-2-methylpiperazin-1-yl)methyl)-1-thioxoisoindolin-2-yl)piperidine-2,6-dione] | B (80%< substrate protein remaining %≤ 100%) | B (80%< substrate protein remaining %≤ 100%) | A (0% ≤ substrate protein remaining % ≤ 80%) | B (80%< substrate protein remaining %≤ 100%) | A (0% ≤ substrate protein remaining % ≤ 80%) | A (0% ≤ substrate protein remaining % ≤ 80%) | – | – | – | – | – | – |
| 80 to 100% | 80 to 100% | – | O=C1CCC(N2Cc3cc(CN4CCN(c5cccc(F)n5)CC4)ccc3C2=S)C(=O)N1 (centres unmarked) [GT-09221, 3-(5-((4-(6-fluoropyridin-2-yl)piperazin-1-yl)methyl)-1-thioxoisoindolin-2-yl)piperidine-2,6-dione] | B (80%< substrate protein remaining %≤ 100%) | A (0% ≤ substrate protein remaining % ≤ 80%) | B (80%< substrate protein remaining %≤ 100%) | B (80%< substrate protein remaining %≤ 100%) | A (0% ≤ substrate protein remaining % ≤ 80%) | B (80%< substrate protein remaining %≤ 100%) | – | – | – | – | – | – |
| 40 to 53% | 60 to 80% | – | Cc1sc2ncnc(C3=CCN(Cc4cccc5c4CN(C4CCC(=O)NC4=O)C5=S)CC3)c2c1C (centres unmarked) [GT-08955, 3-(4-((4-(5,6-dimethylthieno[2,3-d]pyrimidin-4-yl)-3,6-dihydropyridin-1(2H)-yl)methyl)-1-thioxoisoindolin-2-yl)piperidine-2,6-dione] | – | – | – | – | – | – | B (80%< substrate protein remaining %≤ 100%) | B (80%< substrate protein remaining %≤ 100%) | B (80%< substrate protein remaining %≤ 100%) | B (80%< substrate protein remaining %≤ 100%) | A (0% ≤ substrate protein remaining % ≤ 80%) | B (80%< substrate protein remaining %≤ 100%) |
| 40 to 53% | 60 to 80% | – | O=C1CCC(N2Cc3c(CN4CCN(c5ccsc5)CC4)cccc3C2=S)C(=O)N1 (centres unmarked) [GT-08313, 3-(4-((4-(thiophen-3-yl)piperazin-1-yl)methyl)-1-thioxoisoindolin-2-yl)piperidine-2,6-dione] | – | – | – | – | – | – | B (80%< substrate protein remaining %≤ 100%) | B (80%< substrate protein remaining %≤ 100%) | A (0% ≤ substrate protein remaining % ≤ 80%) | B (80%< substrate protein remaining %≤ 100%) | A (0% ≤ substrate protein remaining % ≤ 80%) | B (80%< substrate protein remaining %≤ 100%) |
| – | – | 100 to 500 nM | O=C1CCC(N2Cc3cc(CN4CCC(c5ccco5)CC4)ccc3C2=S)C(=O)N1 (centres unmarked) [GT-05148, 3-(5-((4-(furan-2-yl)piperidin-1-yl)methyl)-1-thioxoisoindolin-2-yl)piperidine-2,6-dione] | B (80%< substrate protein remaining %≤ 100%) | B (80%< substrate protein remaining %≤ 100%) | B (80%< substrate protein remaining %≤ 100%) | B (80%< substrate protein remaining %≤ 100%) | B (80%< substrate protein remaining %≤ 100%) | A (0% ≤ substrate protein remaining % ≤ 80%) | – | – | – | – | – | – |
| 60 to 80% | 80 to 100% | – | O=C1CCC(N2Cc3cc(CN4CCC(c5ncnc6scc(-c7ccccc7)c56)CC4)ccc3C2=S)C(=O)N1 (centres unmarked) [GT-09307, 3-(5-((4-(5-phenylthieno[2,3-d]pyrimidin-4-yl)piperidin-1-yl)methyl)-1-thioxoisoindolin-2-yl)piperidine-2,6-dione] | – | – | – | – | – | – | A (0% ≤ substrate protein remaining % ≤ 80%) | A (0% ≤ substrate protein remaining % ≤ 80%) | B (80%< substrate protein remaining %≤ 100%) | A (0% ≤ substrate protein remaining % ≤ 80%) | A (0% ≤ substrate protein remaining % ≤ 80%) | A (0% ≤ substrate protein remaining % ≤ 80%) |
| 60 to 80% | 80 to 100% | – | O=C1CCC(N2Cc3c(CN4CCN(c5ccncc5Cl)CC4)cccc3C2=S)C(=O)N1 (centres unmarked) [GT-08731, 3-(4-((4-(3-chloropyridin-4-yl)piperazin-1-yl)methyl)-1-thioxoisoindolin-2-yl)piperidine-2,6-dione] | B (80%< substrate protein remaining %≤ 100%) | B (80%< substrate protein remaining %≤ 100%) | B (80%< substrate protein remaining %≤ 100%) | B (80%< substrate protein remaining %≤ 100%) | A (0% ≤ substrate protein remaining % ≤ 80%) | A (0% ≤ substrate protein remaining % ≤ 80%) | – | – | – | – | – | – |
